Assay results reported in ChEMBL document CHEMBL1201862, “PubChem BioAssay data set” (2004).
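Cultured in 96-well plates, cells were exposed to test compound for 48 hours across five concentrations. GI50: concentration for 50% inhibition of growth.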 Calls of active or inactive are those of the source. Cut-off read from the data, not from the text of the source: active = GI50 up to about 1.1 µM and inactive = higher.

Key:
Assay in all cases: NCI-60 cell line screen, 48 h
[1] = tested on: Hs-578T
[2] = tested on: T47D
[3] = tested on: IGROV-1
[4] = tested on: NCI-H460
[5] = tested on: UO-31
[6] = tested on: SF-268
[7] = tested on: HCT-15
[8] = tested on: NCI/ADR-RES
[9] = tested on: HL-60
[10] = tested on: RXF 393
[11] = tested on: ACHN
[12] = tested on: HCC 2998
[13] = tested on: OVCAR-8
[14] = tested on: SN12C
[15] = tested on: COLO 205
[16] = tested on: TK-10
[17] = tested on: NCI-H226
[18] = tested on: MDA-MB-435
[19] = tested on: KM12
[20] = tested on: HT-29
[21] = tested on: SF-295
[22] = tested on: 786-0
[23] = tested on: NCI-H522
[24] = tested on: SK-MEL-2
[25] = tested on: A549
[26] = tested on: MDA-MB-231
[27] = tested on: CAKI-1
[28] = tested on: U-251
[29] = tested on: OVCAR-5
[30] = tested on: RPMI-8226
[31] = tested on: HOP-92
[32] = tested on: SK-MEL-28
[33] = tested on: SK-MEL-5
[34] = tested on: UACC-62
[35] = tested on: SNB-19
[36] = tested on: UACC-257
[37] = tested on: OVCAR-4
[38] = tested on: DU-145
[39] = tested on: CCRF-CEM
[40] = tested on: SNB-75
[41] = tested on: A498
[42] = tested on: SW-620
[43] = tested on: SK-OV-3
[44] = tested on: OVCAR-3
[45] = tested on: MOLT-4
[46] = tested on: MDA-N
[47] = tested on: NCI-H23
[48] = tested on: M14
[49] = tested on: HCT-116
[50] = tested on: SF-539
[51] = tested on: LOX IMVI
[52] = tested on: EKVX
[53] = tested on: PC-3
[54] = tested on: Malme-3M
[55] = tested on: K562
[56] = tested on: HOP-62
[57] = tested on: MCF7
[58] = tested on: SR

For COC(=O)[C@@H]1CN(C(C)=O)C(=O)N1, the GI50 [1] was > 100 µM (inactive), the GI50 [2] was 43.9 µM (inactive) and the GI50 [3] was > 100 µM (inactive). The GI50 [4] was > 100 µM (inactive), the GI50 [5] was > 100 µM (inactive) and the GI50 [6] was > 100 µM (inactive). For the same compound, the GI50 [7] was > 100 µM, the GI50 [8] was > 100 µM (inactive) and the GI50 [9] was > 100 µM (inactive). For the same compound, the GI50 [10] was > 100 µM (inactive), the GI50 [11] was > 100 µM (inactive) and the GI50 [12] was > 100 µM (inactive). The GI50 [13] was > 100 µM (inactive), the GI50 [14] was > 100 µM (inactive) and the GI50 [15] was > 100 µM (inactive). For the same compound, the GI50 [16] was > 100 µM (inactive), the GI50 [17] was > 100 µM (inactive) and the GI50 [18] was > 100 µM (inactive). The GI50 [19] was > 100 µM (inactive), the GI50 [20] was > 100 µM (inactive) and the GI50 [21] was > 100 µM (inactive). The GI50 [22] was > 100 µM (inactive), the GI50 [23] was > 100 µM (inactive) and the GI50 [24] was > 100 µM (inactive). For the same compound, the GI50 [25] was > 100 µM (inactive), the GI50 [26] was 5.06 µM (inactive) and the GI50 [27] was > 100 µM (inactive). The GI50 [28] was > 100 µM (inactive), the GI50 [29] was > 100 µM (inactive) and the GI50 [30] was > 100 µM (inactive). The GI50 [31] was > 100 µM (inactive), the GI50 [32] was > 100 µM (inactive) and the GI50 [33] was > 100 µM (inactive). The GI50 [34] was > 100 µM (inactive), the GI50 [35] was > 100 µM (inactive) and the GI50 [36] was > 100 µM (inactive). The GI50 [37] was > 100 µM (inactive), the GI50 [38] was > 100 µM (inactive) and the GI50 [39] was > 100 µM (inactive). For the same compound, the GI50 [40] was > 100 µM (inactive), the GI50 [41] was > 100 µM (inactive) and the GI50 [42] was > 100 µM (inactive). The GI50 [43] was > 100 µM (inactive), the GI50 [44] was > 100 µM (inactive) and the GI50 [45] was > 100 µM (inactive). The GI50 [46] was > 100 µM (inactive), the GI50 [47] was > 100 µM (inactive) and the GI50 [48] was > 100 µM (inactive). The GI50 [49] was > 100 µM (inactive), the GI50 [50] was > 100 µM (inactive) and the GI50 [51] was > 100 µM (inactive). The GI50 [52] was > 100 µM (inactive), the GI50 [53] was > 100 µM (inactive) and the GI50 [54] was > 100 µM (inactive). The GI50 [55] was > 100 µM (inactive) and the GI50 [56] was > 100 µM (inactive).

CC(C)(C)C1=C(Br)C(Br)(C(C)(C)C)OP1(=O)c1ccccc1 (configuration not stated) was tested, and the GI50 [1] was > 100 µM (inactive), the GI50 [2] was 31.5 µM (inactive) and the GI50 [3] was > 100 µM (inactive). The GI50 [4] was > 100 µM (inactive), the GI50 [5] was > 100 µM (inactive) and the GI50 [6] was > 100 µM (inactive). The GI50 [7] was > 100 µM, the GI50 [8] was > 100 µM (inactive) and the GI50 [9] was > 100 µM (inactive). The GI50 [10] was > 100 µM (inactive), the GI50 [11] was > 100 µM (inactive) and the GI50 [12] was > 100 µM (inactive). The GI50 [13] was > 100 µM (inactive), the GI50 [14] was > 100 µM (inactive) and the GI50 [15] was > 100 µM (inactive). For the same compound, the GI50 [16] was > 100 µM (inactive), the GI50 [18] was > 100 µM (inactive) and the GI50 [19] was > 100 µM (inactive). The GI50 [20] was > 100 µM (inactive), the GI50 [21] was > 100 µM (inactive) and the GI50 [22] was > 100 µM (inactive). The GI50 [23] was > 100 µM (inactive), the GI50 [24] was > 100 µM (inactive) and the GI50 [25] was > 100 µM (inactive). The GI50 [27] was > 100 µM (inactive), the GI50 [57] was > 100 µM (inactive) and the GI50 [28] was > 100 µM (inactive). The GI50 [29] was > 100 µM (inactive), the GI50 [31] was > 100 µM (inactive) and the GI50 [32] was > 100 µM (inactive). For the same compound, the GI50 [33] was > 100 µM (inactive), the GI50 [34] was > 100 µM (inactive) and the GI50 [35] was > 100 µM (inactive). The GI50 [36] was > 100 µM (inactive), the GI50 [58] was > 100 µM (inactive) and the GI50 [37] was > 100 µM (inactive). For the same compound, the GI50 [38] was > 100 µM (inactive), the GI50 [40] was > 100 µM (inactive) and the GI50 [41] was > 100 µM (inactive). The GI50 [42] was > 100 µM (inactive), the GI50 [43] was > 100 µM (inactive) and the GI50 [44] was > 100 µM (inactive). The GI50 [46] was > 100 µM (inactive), the GI50 [47] was > 100 µM (inactive) and the GI50 [48] was > 100 µM (inactive). The GI50 [49] was > 100 µM (inactive), the GI50 [50] was > 100 µM (inactive) and the GI50 [51] was > 100 µM (inactive). For the same compound, the GI50 [52] was > 100 µM (inactive), the GI50 [53] was > 100 µM (inactive) and the GI50 [54] was > 100 µM (inactive). For the same compound, the GI50 [55] was > 100 µM (inactive) and the GI50 [56] was > 100 µM (inactive).

With CC(C)C1=CC23CCC4C(C)(C(=O)O)CCCC4(C)C2CC1C1C(=O)N(c2ccccc2N2C(=O)C4C5CC6C7(C)CCCC(C)(C(=O)O)C7CCC6(C=C5C(C)C)C4C2=O)C(=O)C13 (configuration not stated) the GI50 [1] was 9.55 µM (inactive), the GI50 [2] was 19.9 µM (inactive) and the GI50 [5] was 18.2 µM (inactive). For the same compound, the GI50 [6] was 3.09 µM (inactive), the GI50 [7] was 14.3 µM and the GI50 [9] was 6.38 µM (inactive). The GI50 [10] was 11.3 µM (inactive), the GI50 [11] was 10.2 µM (inactive) and the GI50 [12] was 4.01 µM (inactive). For the same compound, the GI50 [13] was 4.52 µM (inactive), the GI50 [14] was 9.06 µM (inactive) and the GI50 [15] was 4.57 µM (inactive). For the same compound, the GI50 [16] was 13.1 µM (inactive), the GI50 [17] was 12.1 µM (inactive) and the GI50 [18] was 3.63 µM (inactive). The GI50 [19] was 3.09 µM (inactive), the GI50 [20] was 3.32 µM (inactive) and the GI50 [22] was 14.4 µM (inactive). The GI50 [23] was 8.73 µM (inactive), the GI50 [24] was 12.2 µM (inactive) and the GI50 [25] was 14 µM (inactive). The GI50 [26] was 11.6 µM (inactive), the GI50 [57] was 3.66 µM (inactive) and the GI50 [28] was 3.16 µM (inactive). The GI50 [29] was 12.2 µM (inactive), the GI50 [30] was 7.64 µM (inactive) and the GI50 [31] was 17.9 µM (inactive). The GI50 [32] was 7.89 µM (inactive), the GI50 [33] was 5.83 µM (inactive) and the GI50 [35] was 4.79 µM (inactive). For the same compound, the GI50 [58] was 3.89 µM (inactive), the GI50 [37] was 18 µM (inactive) and the GI50 [38] was 9.4 µM (inactive). For the same compound, the GI50 [39] was 4.39 µM (inactive), the GI50 [41] was 2.93 µM (inactive) and the GI50 [42] was 12.6 µM (inactive). The GI50 [44] was 10.9 µM (inactive), the GI50 [45] was 2.85 µM (inactive) and the GI50 [46] was 5 µM (inactive). For the same compound, the GI50 [47] was 2.47 µM (inactive), the GI50 [48] was 5.24 µM (inactive) and the GI50 [49] was 5.77 µM (inactive). For the same compound, the GI50 [50] was 3.1 µM (inactive), the GI50 [52] was 3.64 µM (inactive) and the GI50 [53] was 3.23 µM (inactive). The GI50 [54] was 13.1 µM (inactive), the GI50 [55] was 6.58 µM (inactive) and the GI50 [56] was 4.67 µM (inactive).
